Data reported in patent publication US12077503B2, “Substituted cyclic amides and their use as herbicides” (FMC CORPORATION, priority 2015, dated 2024).

How the values were obtained:
Assay type in all cases: in vivo
[1] = test system: barnyardgrass (Echinochloa crus-galli); experiment: Test B flooded paddy test; conditions: Echinochloa crus-galli, 250 g ai/ha, Flood; 0 to 100 scale where 0 is no effect and 100 is complete control; read-out: Barnyardgrass plant response rating
In short: (§1)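 Percent control, visually estimated after 13–15 d in the greenhouse on a 0–100 basis, compares treated pots with untreated ones; compound was put into paddy water 3 cm above the soil when plants had two leaves.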

[2] = test system: sedge, umbrella (small-flower umbrella sedge, Cyperus difformis); experiment: Test B flooded paddy test; conditions: Cyperus difformis, 250 g ai/ha, Flood; 0 to 100 scale where 0 is no effect and 100 is complete control; read-out: Sedge, Umbrella plant response rating
In short: as §1

rice (Oryra sativa) = experiment: Test B flooded paddy test; conditions: Oryza sativa, 250 g ai/ha, Flood; 0 to 100 scale where 0 is no effect and 100 is complete control; read-out: Rice plant response rating
In short: as §1

[3] = test system: ducksalad (Heteranthera limosa); experiment: Test B flooded paddy test; conditions: Heteranthera limosa, 250 g ai/ha, Flood; 0 to 100 scale where 0 is no effect and 100 is complete control; read-out: Ducksalad plant response rating
In short: as §1

[4] = test system: barnyardgrass (Echinochloa crus-galli); experiment: Test A postemergence; conditions: Echinochloa crus-galli, post-emergence, 240 h, Postemergence; for pest or weed control at 125 g/ha: 125 g ai/ha, visual rating about 10 d after treatment, read-out: Barnyardgrass plant response rating (0 to 100 scale, 0 no effect, 100 complete control); for pest or weed control at 31 g/ha: 31 g ai/ha, 0 is no effect, 100 is complete control, read-out: Barnyardgrass plant response rating (0 to 100 scale)
In short: (§2)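 Each rating is a visual injury score from 0 to 100 given about 10 d after treatment, judged against untreated controls kept alongside in the greenhouse. In loam soil–sand blend, seeds got a preemergence directed soil spray, while postemergence plants were 2 to 10 cm tall at spraying.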

[5] = test system: blackgrass (Alopecurus myosuroides); experiment: Test A postemergence; conditions: Alopecurus myosuroides, post-emergence, 240 h, Postemergence, read-out: Blackgrass plant response rating (0 to 100 scale); for pest or weed control at 125 g/ha: 125 g ai/ha, visual rating about 10 d after treatment; for pest or weed control at 31 g/ha: 31 g ai/ha, 0 is no effect, 100 is complete control
In short: as §2

[6] = test system: giant foxtail (Setaria faberii); experiment: Test A postemergence; conditions: Setaria faberi, post-emergence, 240 h, Postemergence, read-out: Foxtail, Giant plant response rating (0 to 100 scale); for pest or weed control at 125 g/ha: 125 g ai/ha, visual rating about 10 d after treatment; for pest or weed control at 31 g/ha: 31 g ai/ha, 0 is no effect, 100 is complete control
In short: as §2

[7] = test system: Galium (catchweed bedstraw, Galium aparine); experiment: Test A postemergence; conditions: Galium, post-emergence, 240 h, Postemergence, read-out: Galium plant response rating (0 to 100 scale); for pest or weed control at 125 g/ha: 125 g ai/ha, visual rating about 10 d after treatment; for pest or weed control at 31 g/ha: 31 g ai/ha, 0 is no effect, 100 is complete control
In short: as §2

corn (Zea mays) = experiment: Test A postemergence; conditions: Zea mays, post-emergence, 240 h, Postemergence, read-out: Corn plant response rating (0 to 100 scale); for plant injury at 125 g/ha: 125 g ai/ha, visual rating about 10 d after treatment; for plant injury at 31 g/ha: 31 g ai/ha, 0 is no effect, 100 is complete control
In short: as §2

[8] = test system: wheat (Triticum aestivum); experiment: Test A postemergence; conditions: Triticum aestivum, post-emergence, 240 h, Postemergence, read-out: Wheat plant response rating (0 to 100 scale); for plant injury at 125 g/ha: 125 g ai/ha, visual rating about 10 d after treatment; for plant injury at 31 g/ha: 31 g ai/ha, 0 is no effect, 100 is complete control
In short: as §2

Kochia (Kochia scoparia) [9] = experiment: Test A postemergence; conditions: Bassia scoparia, post-emergence, 240 h, Postemergence, read-out: Kochia plant response rating (0 to 100 scale); for pest or weed control at 125 g/ha: 125 g ai/ha, visual rating about 10 d after treatment; for pest or weed control at 31 g/ha: 31 g ai/ha, 0 is no effect, 100 is complete control
In short: as §2

[10] = test system: ragweed (common ragweed, Ambrosia elatior); experiment: Test A postemergence; conditions: Ambrosia artemisiifolia, post-emergence, 240 h, Postemergence, read-out: Ragweed plant response rating (0 to 100 scale); for pest or weed control at 125 g/ha: 125 g ai/ha, visual rating about 10 d after treatment; for pest or weed control at 31 g/ha: 31 g ai/ha, 0 is no effect, 100 is complete control
In short: as §2

[11] = test system: pigweed (Amaranthus retroflexus); experiment: Test A postemergence; conditions: Amaranthus retroflexus, post-emergence, 240 h, Postemergence, read-out: Pigweed plant response rating (0 to 100 scale); for pest or weed control at 125 g/ha: 125 g ai/ha, visual rating about 10 d after treatment; for pest or weed control at 31 g/ha: 31 g ai/ha, 0 is no effect, 100 is complete control
In short: as §2

[12] = test system: ryegrass, Italian (Italian ryegrass, Lolium multiflorum); experiment: Test A postemergence; conditions: Lolium multiflorum, post-emergence, 240 h, Postemergence, read-out: Ryegrass, Italian plant response rating (0 to 100 scale); for pest or weed control at 125 g/ha: 125 g ai/ha, visual rating about 10 d after treatment; for pest or weed control at 31 g/ha: 31 g ai/ha, 0 is no effect, 100 is complete control
In short: as §2

[13] = test system: barnyardgrass (Echinochloa crus-galli); experiment: Test A preemergence; conditions: Echinochloa crus-galli, pre-emergence, 240 h, 0 to 100 scale where 0 is no effect and 100 is complete control, read-out: Barnyardgrass plant response rating; for pest or weed control at 31 g/ha: 31 g ai/ha, Preemergence; for pest or weed control at 125 g/ha: 125 g ai/ha, preemergence, visual injury rating, approximately 10 d
In short: as §2

[14] = test system: giant foxtail (Setaria faberii); experiment: Test A preemergence; conditions: Setaria faberi, pre-emergence, 240 h, 0 to 100 scale where 0 is no effect and 100 is complete control, read-out: Foxtail, Giant plant response rating; for pest or weed control at 31 g/ha: 31 g ai/ha, Preemergence; for pest or weed control at 125 g/ha: 125 g ai/ha, preemergence, visual injury rating, approximately 10 d
In short: as §2

Kochia (Kochia scoparia) [15] = experiment: Test A preemergence; conditions: Bassia scoparia, pre-emergence, 240 h, 0 to 100 scale where 0 is no effect and 100 is complete control, read-out: Kochia plant response rating; for pest or weed control at 31 g/ha: 31 g ai/ha, Preemergence; for pest or weed control at 125 g/ha: 125 g ai/ha, preemergence, visual injury rating, approximately 10 d
In short: as §2

[16] = test system: ragweed (common ragweed, Ambrosia elatior); experiment: Test A preemergence; conditions: Ambrosia artemisiifolia, pre-emergence, 240 h, 0 to 100 scale where 0 is no effect and 100 is complete control, read-out: Ragweed plant response rating; for pest or weed control at 31 g/ha: 31 g ai/ha, Preemergence; for pest or weed control at 125 g/ha: 125 g ai/ha, preemergence, visual injury rating, approximately 10 d
In short: as §2

[17] = test system: pigweed (Amaranthus retroflexus); experiment: Test A preemergence; conditions: Amaranthus retroflexus, pre-emergence, 240 h, 0 to 100 scale where 0 is no effect and 100 is complete control, read-out: Pigweed plant response rating; for pest or weed control at 31 g/ha: 31 g ai/ha, Preemergence; for pest or weed control at 125 g/ha: 125 g ai/ha, preemergence, visual injury rating, approximately 10 d
[18] = test system: ryegrass, Italian (Italian ryegrass, Lolium multiflorum); experiment: Test A preemergence; conditions: Lolium multiflorum, pre-emergence, 240 h, 0 to 100 scale where 0 is no effect and 100 is complete control, read-out: Ryegrass, Italian plant response rating; for pest or weed control at 31 g/ha: 31 g ai/ha, Preemergence; for pest or weed control at 125 g/ha: 125 g ai/ha, preemergence, visual injury rating, approximately 10 d
In short: as §2

Row | SMILES | pest or weed control at 250 g/ha [1] [%] | pest or weed control at 250 g/ha [2] [%] | pest or weed control at 250 g/ha (rice (Oryra sativa)) [%] | pest or weed control at 250 g/ha [3] [%] | pest or weed control at 125 g/ha [4] [%] | pest or weed control at 31 g/ha [4] [%] | pest or weed control at 125 g/ha [5] [%] | pest or weed control at 31 g/ha [5] [%] | pest or weed control at 125 g/ha [6] [%] | pest or weed control at 31 g/ha [6] [%] | pest or weed control at 125 g/ha [7] [%] | pest or weed control at 31 g/ha [7] [%] | plant injury at 125 g/ha (corn (Zea mays)) [%] | plant injury at 31 g/ha (corn (Zea mays)) [%] | plant injury at 125 g/ha [8] [%] | plant injury at 31 g/ha [8] [%] | pest or weed control at 125 g/ha (Kochia (Kochia scoparia) [9]) [%] | pest or weed control at 31 g/ha (Kochia (Kochia scoparia) [9]) [%] | pest or weed control at 125 g/ha [10] [%] | pest or weed control at 31 g/ha [10] [%] | also measured
1 | CN1C[C@H](c2cccc(C#N)c2)[C@@H](C(=O)Nc2ccccc2F)C1=O [Compound 1285] | 60 | 0 | 25 | 90 | 80 | 60 | 0 | 0 | 70 | 40 | 30 | 20 | 0 | 0 | 0 | 0 | 0 | 0 | 0 | 0 | pest or weed control at 125 g/ha [11]: 20%; pest or weed control at 31 g/ha [11]: 20%; pest or weed control at 125 g/ha [12]: 0%; pest or weed control at 31 g/ha [12]: 0%; pest or weed control at 31 g/ha [13]: 40%; pest or weed control at 125 g/ha [13]: 90%; pest or weed control at 31 g/ha [14]: 90%; pest or weed control at 125 g/ha [14]: 100%; pest or weed control at 31 g/ha (Kochia (Kochia scoparia) [15]): 20%; pest or weed control at 125 g/ha (Kochia (Kochia scoparia) [15]): 30%; pest or weed control at 31 g/ha [16]: 30%; pest or weed control at 125 g/ha [16]: 30%; pest or weed control at 31 g/ha [17]: 0%; pest or weed control at 125 g/ha [17]: 0%; pest or weed control at 31 g/ha [18]: 0%; pest or weed control at 125 g/ha [18]: 0%
2 | CN1C[C@H](c2cccc(C#N)c2)[C@@H](C(=O)Nc2ccc(F)c(F)c2F)C1=O [Compound 1287] | 75 | 0 | 15 | 80 | 90 | 80 | 20 | 0 | 80 | 70 | 40 | 30 | 0 | 0 | 0 | 0 | 30 | 0 | 0 | 0 | pest or weed control at 125 g/ha [11]: 0%; pest or weed control at 31 g/ha [11]: 0%; pest or weed control at 125 g/ha [12]: 0%; pest or weed control at 31 g/ha [12]: 0%; pest or weed control at 31 g/ha [13]: 90%; pest or weed control at 125 g/ha [13]: 100%; pest or weed control at 31 g/ha [14]: 100%; pest or weed control at 125 g/ha [14]: 100%; pest or weed control at 31 g/ha (Kochia (Kochia scoparia) [15]): 20%; pest or weed control at 125 g/ha (Kochia (Kochia scoparia) [15]): 70%; pest or weed control at 31 g/ha [16]: 0%; pest or weed control at 125 g/ha [16]: 0%; pest or weed control at 31 g/ha [17]: 0%; pest or weed control at 125 g/ha [17]: 40%; pest or weed control at 31 g/ha [18]: 0%; pest or weed control at 125 g/ha [18]: 40%
